Experimental findings from patent publication US20200399238A1, “THERAPEUTIC AURONES” (MIDDLE TENNESSEE STATE UNIVERSITY, priority 2016, published 2020) are described below.

The test system of data set [1] is C. albicans (ATCC strain 90028). The data set can be described thus: Antifungal microdilution broth assay (PrestoBlue), C. albicans. The data set is classed as cell-based, Candida albicans. The settings on record: Candida albicans. In short, it runs like this:
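Inoculum of 1.5×10^3 cells/mL in RPMI-MOPS (0.165 M MOPS, pH 7.0), exposed to aurones for 24 h at 35 °C. Growth read by PrestoBlue (10% final) fluorescence at ex 560/em 590 nm.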
In general terms: In broth dilution the organism is exposed to a series of concentrations in liquid medium.

Data set [2] deals with Cryptococcus neoformans (Cn). The data set can be described thus: CLSI micro-dilution inhibition / MIC, Cryptococcus neoformans. Format: cell-based. Particulars: running text b175, read-out: MIC against Cryptococcus neoformans. On the procedure:
C. neoformans (strain 1199s) was prepared following CLSI guidelines for the organism (CLSI, Reference Method for Broth Dilution Antifungal Susceptibility Testing of Yeasts, Approved Standard-Third. Edition, Clinical Laboratory Standards Institute, Wayne, Pa., 2008).
The A27-M2 CLSI standard micro-dilution method was used to screen an aurone library (MTSU Department of Chemistry) for inhibition of Cryptococcus neoformans (Cn). Each aurone was screened in triplicate. […] Toxicity assays were conducted on human THP1 macrophages and L6 rat fibroblasts.
The inhibition of Cn strains and C. gattii strains by Aurone 9051 (also referred to as “Aurone X”) was characterized in different medias (including RPMI 1640 (Standard), RPMI 1640+MOPS, Asparagine media, minimal media, or yeast extract peptone dextrose (YPD) media), against other serotypes and strains, and at different cell concentrations. Synergy of the compounds with current drugs was characterized, and a growth curve experiment was conducted.

The subject of data set [3] is C. glabrata (ATCC strain 66032). Nature of the data set: Antifungal microdilution broth assay (PrestoBlue), C. glabrata. The data set is classed as cell-based, Candida glabrata. The settings on record: Nakaseomyces glabratus, ATCC66032; Table 5. The procedure: Sigma-Aldrich) was used as the base medium for testing. […] solution of morpholinepropanesulfonic acid (MOPS; Sigma-Aldrich) was added to the RPMI to a final concentration of 0.165 M for buffering (RPMI-MOPS). This medium was adjusted to a pH of 7.0 with 10 M NaOH and filter sterilized. C. albicans (ATCC strain 90028), C. [NT] strain 66032), and C. tropicalis (ATCC strain 750) were cultured on potato dextrose agar (Sigma-Aldrich) plates, and incubated at 35° C. for 24 hours. For antifungal testing, overnight colonies were adjusted to 1.5×10^3 cells/mL, hereafter referred to as the test inoculum. […] Reduction of the compound from resazurin to resorufin is proportional to the number of metabolically active cells and can be quantified by measuring relative fluorescence units (RFUs). […] PrestoBlue was added to a final concentration of 10% in each well and fluorescence read at 560 nm excitation and 590 nm emission, per manufacturer instructions, using a SpectraMax M2e spectrophotometer (Molecular Devices, LLC, Sunnyvale, Calif.). […] The calculated Z', as described below, was compared to RFU readings and the optimal PrestoBlue incubation time was determined to be 75 minutes. IC50 determination was calculated using GraphPad Prism version 7.01 for Windows (GraphPad Software, Inc., La Jolla, Calif.) from the RFUs at dilution points. […]

The subject of data set [4] is IKKβ, IκBα, p65. Nature of the data set: Western blot, IKK / IκBα / p65 phosphorylation, THP-1. Particulars: 12.5, 25, 50 μM, LPS 15 min, dose-dependent. For orientation: In western blotting, separated proteins are transferred to a membrane and probed.
Protocol: (§1) U0126 is a compound that inhibits MEK1/2 and was used as positive control for ERK phosphorylation inhibition (Hotokezaka, Sakai et al. 2002). Cells were lysed with radio-immunoprecipitation assay (RIPA) lysis buffer that contained a protease and phosphatase inhibitor cocktail. Cell lysates were then tested for protein concentration using a BCA protein assay and diluted with RIPA lysis buffer to normalize protein concentration in all samples. Lysates were mixed with sample loading buffer containing bromophenol blue, glycerol, SDS, and 2-mercaptoethanol. The separated proteins were then transferred onto a nitrocellulose membrane and blocked with 5% BSA in IX Tris-buffered saline with 0.1% Tween-20 for 1 h. The blots were incubated with primary antibodies at 4° C. overnight followed by incubation with HRP-conjugated secondary antibodies for 2 h at 22° C. The membranes were developed by addition of ECL substrate and images were collected with a ChemiDoc XRS+ system chemiluminescence imager (Bio-Rad, Hercules, Calif., USA). Western blot band intensity was quantified using Image Lab software (Bio-Rad, Hercules, Calif., USA). […]
Data set [5] relates to ERK, JNK, p38. The data set can be described thus: Western blot, MAPK phosphorylation, RAW 264.7. Particulars: RAW264.7; LPS 15 min.
Protocol: as §1
Data set [6] relates to NO production. Nature of the data set: NO assay (Griess, nitrite), RAW 264.7. Format: cell-based, murine. The settings on record: LPS-stimulated RAW264.7, 24 h. On the procedure: Nitrite concentration in culture media of cells exposed to the indicated treatments was determined as an estimate of NO production with Griess reagent using a nitrate/nitrite colorimetric assay kit (Cayman Chemical Company, USA) according to the manufacturer's protocol.

The structures appear in SMILES notation. Like-named read-outs stand apart in the source and are kept apart here.

One may read the melting point as the temperature of the solid-liquid transition. Broadly, the IC50 is the concentration that inhibits the measured activity by half. Usually MIC stands for the lowest concentration found to suppress growth. The compound `COc1ccc(/C=C2\Oc3c(ccc(O)c3O)C2=O)cc1O` [Aurone 1009, (Z)-6,7-dihydroxy-2-(3-hydroxy-4-methoxybenzylidene)benzofuran-3(2H)-one] gave a melting point of 275 to 280 °C. The IC50 in data set [1] (ATCC90028, Table 5, read-out: IC50 C. albicans) was determined as 16 µM. In data set [1] (ATCC90028, across C. albicans, C. glabrata, and C. tropicalis, read-out: IC50 values against Candida species), the IC50 is 10 to 18 µM. Moreover, the minimal inhibitory concentration (MIC) in data set [2] was 30 µM. The compound further returned an IC50 in data set [3] of 11 µM.
Consider `O=C1/C(=C/c2ccc(CO)o2)Oc2ccccc21` [aurone 1], for which the “phosphorylation of IKKβ, IκBα and p65” value in data set [4] is “suppress the phosphorylation of all three proteins”. The “phosphorylation of ERK, JNK, or p38” value in data set [5] is reported as “no statistically significant effect”. Besides, the “production of NO (nitrite in supernatants)” value in data set [6] is “significantly reduced”.
